Measured values from BindingDB's records for PubMed 39326269 (Second Military Medical University).
Where a SMILES comes first, the peptide text is derived from it. Bridges are numbered along the chain shown (N, C = ends). [ ]: non-standard residue; d: D form. S5 = C=CCCC[C@](C)(N)C(=O)O

How the values were obtained:
[1] = Inhibition of pERK in human ASPC1 cells measured after 18 hr
[2] = Inhibition of pERK in human ASPC1 cells measured after 1 hr
[3] = target: GTPase KRas (Homo sapiens, UniProt P01116); assay: Binding affinity to KRas G12C mutant (unknown origin) assessed as dissociation constant by biolayer interferometry assay
GTPase KRas, sequence (P01116 whole entry G12C): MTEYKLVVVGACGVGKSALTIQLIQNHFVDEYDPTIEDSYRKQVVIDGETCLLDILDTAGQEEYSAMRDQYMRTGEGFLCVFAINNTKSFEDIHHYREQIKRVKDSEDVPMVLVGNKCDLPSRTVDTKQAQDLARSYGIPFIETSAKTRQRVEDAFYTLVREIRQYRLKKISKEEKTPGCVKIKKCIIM

Structure (SMILES)	EC50 [1]	EC50 [2]	Kd [3]
CC[C@H](C)[C@@H]1NC(=O)[C@H](Cc2ccc(O)cc2)NC(=O)[C@H](CC(C)C)NC(=O)[C@@H]2CCCN2C(=O)[C@H](NC(=O)[C@@H](CCCNC(=N)N)NC(=O)[C@@H](CCCNC(=N)N)NC(=O)[C@@H](CCCNC(=N)N)NC(=O)[C@@H](CCCNC(=N)N)NC(=O)[C@H](CCCCN=[N+]=[N-])NC(C)=O)CSSC[C@@H](C(=O)N[C@H](CCCNC(=N)N)C(=O)N[C@H](CCCNC(=N)N)C(=O)N[C@H](CCCNC(=N)N)C(=O)N[C@H](CCCNC(=N)N)C(N)=O)NC(=O)[C@H](C(C)C)NC(=O)[C@@H]2CCCN2C(=O)[C@H](CC(=O)O)NC(=O)[C@H](Cc2ccc(O)cc2)NC(=O)[C@](C)(CO)NC1=O	1500 nM	1200 nM	–
CC[C@H](C)[C@H](NC(=O)CNC(=O)[C@H](Cc1ccccc1)NC(C)=O)C(=O)N[C@@]1(C)CCCC=CCCC[C@@](C)(C(=O)N[C@@H](CC(C)C)C(=O)N[C@@H](CCCCN)C(=O)N[C@H](C(N)=O)[C@@H](C)O)NC(=O)[C@H](CC(N)=O)NC(=O)[C@H]([C@@H](C)O)NC(=O)[C@H](CC(C)C)NC1=O (Ac-FGI[S5]LTN[S5]LKT-NH2; staple 4-8)	–	–	7670 nM
